Measured values from US20130210786A1, “TREATMENT OF L-DOPA, DOPAMINE AGONIST AND/OR DOPAMINE ENHANCER INDUCED DISORDERS” (priority 2010, published 2013).

Legend:
[1] = system: MPTP-lesioned macaques; experiment: L-DOPA induced dyskinesia (LID) in MPTP-lesioned macaques, monkey dyskinesia rating scale; type: in vivo, Macaca fascicularis; conditions: for % reduction in LID compared to corresponding vehicle group / Number of LID events in each stated time period (hours) post challenge 0-1 / Number of LID events in each stated time period (hours) post challenge 1-2 / Number of LID events in each stated time period (hours) post challenge 2-3 / Number of LID events in each stated time period (hours) post challenge 3-4 / Number of LID events in each stated time period (hours) post challenge 4-5 / Number of LID events in each stated time period (hours) post challenge 5-6 / Number of LID events post challenge Total: smilagenin 20 mg/kg/day p.o. 18 weeks, then 10 week washout; for Number of LID events in each stated time period (hours) post challenge 0-1: 0-1 h; for Number of LID events in each stated time period (hours) post challenge 1-2: 1-2 h; for Number of LID events in each stated time period (hours) post challenge 2-3: 2-3 h; for Number of LID events in each stated time period (hours) post challenge 3-4: 3-4 h; for Number of LID events in each stated time period (hours) post challenge 4-5: 4-5 h; for Number of LID events in each stated time period (hours) post challenge 5-6: 5-6 h; for Number of LID events post challenge Total: total 0-6 h
Protocol: Ten female cynomolgus monkeys (macaques) (Macaca fascicularis, 3.0-4.5 kg, 4-6 years old) were acclimatised to the experimental setting and procedures for 3 months and baseline behaviour was assessed in all animals. The macaques received MPTP (0.2 mg/kg/day, s.c.) until moderate-marked, stable, parkinsonian symptoms developed.
Following stabilisation of parkinsonian disability, the macaques were administered L-DOPA (Madopar, 20 mg/kg b.i.d., p.o.) for 19 weeks before being administered L-DOPA+vehicle (hydroxypropylmethylcellulose, HPMC, 0.5% w/v containing Tween 80, 0.2% v/v, group 1, n=5) or L-DOPA+smilagenin (20 mg/kg/day, p.o., group 2, n=5) for a further 18 weeks. Smilagenin was then washed out for 10 weeks and all the macaques received only L-DOPA twice daily over this 10 week period.
Following the 10 week washout, the macaques were challenged with L-DOPA (6, 12, 20, 30 or 40 mg/kg, p.o.) or vehicle and the level of dyskinesia over the subsequent 6 h period was assessed by a neurologist blinded to treatment using a monkey dyskinesia rating scale. […] Each macaque received a challenge once every 3 days and received every challenge (vehicle and L-DOPA, 6, 12, 20, 30 or 40 mg/kg) in a randomised order over the course of the experiment. On the days between challenges, the macaques received L-DOPA (20 mg/kg, b.i.d., p.o.) as normal.
The MPTP-lesioned and L-DOPA treated macaques used in this experiment provide an accepted model for L-DOPA-induced dyskinesia.

[2] = system: MPTP-lesioned macaques; experiment: On-time (time without bradykinesia) in MPTP-lesioned macaques after L-DOPA challenge; type: in vivo, Macaca fascicularis; conditions: for Minutes spent in on time (mean ± s.e. mean): 6 h observation; for Minutes spent in on time (mean ± s.e. mean) / Percent on-time normalised to 0 mg/kg L-DOPA (mean ± s.e. mean): smilagenin 20 mg/kg/day p.o. 18 weeks, then 10 week washout
Protocol: Analysis was performed using a two-way ANOVA with group and L-DOPA dose as factors.

[3] = Total across all L-DOPA challenge doses (0-40 mg/kg)

## C[C@@H]1CC[C@@]2(OC1)O[C@H]1C[C@H]3[C@@H]4CC[C@@H]5C[C@@H](O)CC[C@]5(C)[C@H]4CC[C@]3(C)[C@H]1[C@@H]2C [Smilagenin, smilagenin]
[1]; Across all doses of L-DOPA
  % reduction in LID compared to corresponding vehicle group: 53%
[1]; L-DOPA challenge 0 mg/kg
  Number of LID events in each stated time period (hours) post challenge 0-1: 0
  Number of LID events in each stated time period (hours) post challenge 1-2: 0
  Number of LID events in each stated time period (hours) post challenge 2-3: 0
  Number of LID events in each stated time period (hours) post challenge 3-4: 0
  Number of LID events in each stated time period (hours) post challenge 4-5: 0
  Number of LID events in each stated time period (hours) post challenge 5-6: 0
  % reduction in LID compared to corresponding vehicle group: 0%
  Number of LID events post challenge Total: 0
[1]; L-DOPA challenge 6 mg/kg p.o.
  Number of LID events in each stated time period (hours) post challenge 0-1: 0
  Number of LID events in each stated time period (hours) post challenge 1-2: 0
  Number of LID events in each stated time period (hours) post challenge 2-3: 0
  Number of LID events in each stated time period (hours) post challenge 3-4: 0
  Number of LID events in each stated time period (hours) post challenge 4-5: 0
  Number of LID events in each stated time period (hours) post challenge 5-6: 0
  % reduction in LID compared to corresponding vehicle group: 0%
  Number of LID events post challenge Total: 0
[1]; L-DOPA challenge 12 mg/kg p.o.
  Number of LID events in each stated time period (hours) post challenge 0-1: 0
  Number of LID events in each stated time period (hours) post challenge 1-2: 0
  Number of LID events in each stated time period (hours) post challenge 2-3: 0
  Number of LID events in each stated time period (hours) post challenge 3-4: 0
  Number of LID events in each stated time period (hours) post challenge 4-5: 0
  Number of LID events in each stated time period (hours) post challenge 5-6: 0
  % reduction in LID compared to corresponding vehicle group: 100%
  Number of LID events post challenge Total: 0
[1]; L-DOPA challenge 20 mg/kg p.o.
  Number of LID events in each stated time period (hours) post challenge 0-1: 8
  Number of LID events in each stated time period (hours) post challenge 1-2: 29
  Number of LID events in each stated time period (hours) post challenge 2-3: 6
  Number of LID events in each stated time period (hours) post challenge 3-4: 0
  Number of LID events in each stated time period (hours) post challenge 4-5: 0
  Number of LID events in each stated time period (hours) post challenge 5-6: 0
  % reduction in LID compared to corresponding vehicle group: 52%
  Number of LID events post challenge Total: 43
[1]; L-DOPA challenge 30 mg/kg p.o.
  Number of LID events in each stated time period (hours) post challenge 0-1: 3
  Number of LID events in each stated time period (hours) post challenge 1-2: 29
  Number of LID events in each stated time period (hours) post challenge 2-3: 11
  Number of LID events in each stated time period (hours) post challenge 3-4: 0
  Number of LID events in each stated time period (hours) post challenge 4-5: 0
  Number of LID events in each stated time period (hours) post challenge 5-6: 0
  % reduction in LID compared to corresponding vehicle group: 76%
  Number of LID events post challenge Total: 43
[1]; L-DOPA challenge 40 mg/kg p.o.
  Number of LID events in each stated time period (hours) post challenge 0-1: 8
  Number of LID events in each stated time period (hours) post challenge 1-2: 56
  Number of LID events in each stated time period (hours) post challenge 2-3: 48
  Number of LID events in each stated time period (hours) post challenge 3-4: 14
  Number of LID events in each stated time period (hours) post challenge 4-5: 0
  Number of LID events in each stated time period (hours) post challenge 5-6: 0
  % reduction in LID compared to corresponding vehicle group: 27%
  Number of LID events post challenge Total: 126
[1]; [3]
  Number of LID events in each stated time period (hours) post challenge 0-1: 19
  Number of LID events in each stated time period (hours) post challenge 1-2: 114
  Number of LID events in each stated time period (hours) post challenge 2-3: 65
  Number of LID events in each stated time period (hours) post challenge 3-4: 14
  Number of LID events in each stated time period (hours) post challenge 4-5: 0
  Number of LID events in each stated time period (hours) post challenge 5-6: 0
  Number of LID events post challenge Total: 212
[1]; group 2 (L-DOPA+smilagenin), challenge with L-DOPA 6 or 12 mg/kg, 6 h
  Dyskinesia following challenge with L-DOPA: no dyskinesia was observed
[1]; group 2 (L-DOPA+smilagenin), challenge with L-DOPA at 20, 30 or 40 mg/kg
  Dyskinesia following challenge with L-DOPA, compared to group 1 (vehicle): less dyskinesia compared to group 1
[2]; L-DOPA dose 0 mg/kg
  Minutes spent in on time (mean ± s.e. mean): 114 ± 43 min
  Percent on-time normalised to 0 mg/kg L-DOPA (mean ± s.e. mean): 100%
[2]; L-DOPA dose 6 mg/kg
  Minutes spent in on time (mean ± s.e. mean): 134 ± 43 min
  Percent on-time normalised to 0 mg/kg L-DOPA (mean ± s.e. mean): 118 ± 32%
[2]; L-DOPA dose 12 mg/kg
  Minutes spent in on time (mean ± s.e. mean): 126 ± 35 min
  Percent on-time normalised to 0 mg/kg L-DOPA (mean ± s.e. mean): 111 ± 28%
[2]; L-DOPA dose 20 mg/kg
  Minutes spent in on time (mean ± s.e. mean): 178 ± 29 min
  Percent on-time normalised to 0 mg/kg L-DOPA (mean ± s.e. mean): 156 ± 16%
[2]; L-DOPA dose 30 mg/kg
  Minutes spent in on time (mean ± s.e. mean): 224 ± 13 min
  Percent on-time normalised to 0 mg/kg L-DOPA (mean ± s.e. mean): 196 ± 6%
[2]; L-DOPA dose 40 mg/kg
  Minutes spent in on time (mean ± s.e. mean): 230 ± 24 min
  Percent on-time normalised to 0 mg/kg L-DOPA (mean ± s.e. mean): 202 ± 10%
[2]; two-way ANOVA with group and L-DOPA dose as factors, p>0.05
  Total on-time, smilagenin group versus vehicle group: not significantly different
